# According to ChEMBL document CHEMBL3232962, “Identification and optimization of novel Hsp90 inhibitors with tetrahydropyrido[4,3-d]pyrimidines core through shape-based screening” (Eur J Med Chem, 2014):
# Assays:
# [1] = target: T1, Heat shock protein HSP 90-beta (Homo sapiens, UniProt P08238); test: Inhibition of full-length HSP90 (unknown origin) expressed in Escherichia coli assessed as inhibition of ATPase activity after 3 hrs by spectrophotometric analysis
# [2] = target: T1, Heat shock protein HSP 90-beta; test: Displacement of FITC-geldanamycin from HSP90 (unknown origin) after 30 mins by fluorescence polarization assay
# [3] = Antiproliferative activity against human A231 cells after 48 hrs by MTT assay; format: functional, cell-based; details: A231, 48 h
# HCT-116 = test: cells; details: Homo sapiens, HCT-116, 48 h
# MCF7 = test: cells; details: Homo sapiens, MCF7, 48 h
# cells = details: Homo sapiens, SK-BR-3, 48 h
# Description: Antiproliferative activity against human SKBR3 cells after 48 hrs by MTT assay
# T1 sequence (P08238 whole entry): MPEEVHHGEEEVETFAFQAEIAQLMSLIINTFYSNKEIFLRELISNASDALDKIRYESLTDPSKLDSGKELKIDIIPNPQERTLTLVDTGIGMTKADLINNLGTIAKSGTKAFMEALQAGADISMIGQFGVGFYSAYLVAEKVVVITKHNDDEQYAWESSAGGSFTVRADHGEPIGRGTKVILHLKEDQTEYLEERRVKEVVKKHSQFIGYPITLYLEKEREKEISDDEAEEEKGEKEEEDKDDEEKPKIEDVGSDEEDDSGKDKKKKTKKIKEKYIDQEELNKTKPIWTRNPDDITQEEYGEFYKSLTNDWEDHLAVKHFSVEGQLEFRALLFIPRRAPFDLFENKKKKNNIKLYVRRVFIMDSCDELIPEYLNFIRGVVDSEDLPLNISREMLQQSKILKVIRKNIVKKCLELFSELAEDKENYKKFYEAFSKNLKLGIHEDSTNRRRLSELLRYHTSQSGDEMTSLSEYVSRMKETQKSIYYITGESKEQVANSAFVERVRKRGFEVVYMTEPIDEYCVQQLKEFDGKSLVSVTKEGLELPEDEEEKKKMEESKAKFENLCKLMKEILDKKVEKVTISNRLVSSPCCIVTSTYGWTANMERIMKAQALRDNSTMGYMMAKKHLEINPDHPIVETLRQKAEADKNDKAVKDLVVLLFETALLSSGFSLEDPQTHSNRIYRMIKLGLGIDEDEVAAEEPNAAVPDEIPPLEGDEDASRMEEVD
Structure (SMILES),IC50 [1] [µM],IC50 [2] [µM],IC50 [3] [µM],IC50 (HCT-116) [µM],IC50 (MCF7) [µM],IC50 (cells) [µM]
Clc1ccc(CN2CCc3nc(N4CCN(c5ncccn5)CC4)ncc3C2)cc1,47.9,> 100,,,,
CCCN1CCN(c2ncc3c(n2)CCN(Cc2cc(Br)cs2)C3)CC1,59.3,,,,,
COc1ccc(OC)c(C(=O)N2CCc3nc(N4CCN(c5ncccn5)CC4)ncc3C2)c1,16.4,40.4,51.3,34.6,43.3,23.5
O=C(c1ccc(O)cc1O)N1CCc2nc(N3CCN(c4ncccn4)CC3)ncc2C1,3.23,10.2,21.3,23.1,17.5,12.2
COc1ccc(C(=O)N2CCc3nc(N4CCN(c5ncccn5)CC4)ncc3C2)c(OC)c1,7.88,30.5,37.6,11.5,20.2,16
COc1ccc(OC)c(CN2CCc3nc(N4CCN(c5ncccn5)CC4)ncc3C2)c1,35.2,45.4,27.5,43.2,53.2,10.7
CC1CCN(c2ncc3c(n2)CCN(Cc2ccc(Br)s2)C3)CC1,88,,,,,
CC(C)c1cc(C(=O)N2Cc3ccc(CN4CCN(C)CC4)cc3C2)c(O)cc1O [ONALESPIB],0.35,0.03,1.01,0.08,0.28,0.14
O=C(c1cc(Cl)c(O)cc1O)N1CCc2nc(N3CCN(c4ncccn4)CC3)ncc2C1,0.93,1.67,6.65,2.74,10.2,5.17
CO[C@H]1/C=C\C=C(/C)C(=O)NC2=CC(=O)C(NCCN(C)C)=C(C[C@@H](C)C[C@H](OC)[C@H](O)[C@@H](C)/C=C(\C)[C@@H]1OC(N)=O)C2=O [ALVESPIMYCIN],,,0.17,1.21,0.8,3.11
CN(C)c1ccc(CN2CCc3nc(N4CCN(c5ncccn5)CC4)ncc3C2)cc1,46.1,> 100,,,,
Cc1ncc2c(n1)CCN(C(=O)c1cc(Cl)c(O)cc1O)C2,0.42,0.1,3.76,2.82,1.91,4.32
COc1cc(CN2CCc3nc(N4CCOCC4)ncc3C2)cc(OC)c1OC,55.1,,,,,
COc1cc(OC)c(OC)cc1CN1CCc2nc(N3CCOCC3)ncc2C1,50.9,,,,,
Nc1ncc2c(n1)CCN(C(=O)c1cc(Cl)c(O)cc1O)C2,0.51,0.31,5.22,1.21,4.41,2.3
O=C(c1ccc(Cl)cc1)N1CCc2nc(N3CCN(c4ncccn4)CC3)ncc2C1,24.5,> 100,24.6,21.7,42.2,11.2
CN1CCN(c2ncc3c(n2)CCN(Cc2ccc(Br)s2)C3)CC1,63.2,,,,,
O=C(c1ccc(F)cc1)N1CCc2nc(N3CCN(c4ncccn4)CC3)ncc2C1,27.2,> 100,54.4,67.9,46.2,24.5
c1cc2c(cc1CN1CCc3nc(Nc4ccc5c(c4)OCCO5)ncc3C1)OCCO2,> 100,,,,,
Fc1ccc(CN2CCc3nc(N4CCN(c5ncccn5)CC4)ncc3C2)cc1,40.2,> 100,,,,
CCN1CCN(c2ncc3c(n2)CCN(Cc2ccc(Br)s2)C3)CC1,74.7,,,,,
